Laboratory results published in paper PMC9718554, “Discovery of a fragment hit compound targeting D-Ala:D-Ala ligase of bacterial peptidoglycan biosynthesis” (Journal of Enzyme Inhibition and Medicinal Chemistry, 2022).
Read-outs that look alike come from different tables or passages of the source.

Columns and labels:
[1] = Solubility at tested concentrations (fragment library screening); type: physicochemical
Text: Supplement IENZ_A_2149745_SM2502.zip/DDlB_CDR05_SI_20221103.xlsx, sheet "Fragment library screening" | column: Solubility at tested concentrations

[2] = biological target: T1, E. coli DdlB enzyme (D-alanine:D-alanine ligase) (Escherichia coli, UniProt P07862); assay: biochemical; details: read-out: DdlB RA; for remaining activity at 2100 µM: tested concentration 2.1 mM; for remaining activity at 1900 µM: tested concentration 1.9 mM; for remaining activity at 2000 µM: tested concentration 2.0 mM; for remaining activity at 2300 µM: tested concentration 2.3 mM; for remaining activity at 1700 µM: tested concentration 1.7 mM; for remaining activity at 1800 µM: tested concentration 1.8 mM; for remaining activity at 2200 µM: tested concentration 2.2 mM
T1 construct: made in house; host or cells: E. coli

For `Oc1cccc2ccc(Nc3ccccn3)nc12` [Compound 0422-0008], the “Solubility at tested concentrations” value ([1]; tested concentration 2.1 mM) was “not soluble” and the remaining activity at 2100 µM ([2]; residual activity) was 31%.

With `Oc1ccccc1/N=C/c1ccc2cccc(O)c2n1` [Compound 0422-0036] the “Solubility at tested concentrations” value ([1]; tested concentration 1.9 mM) was “not soluble” and the remaining activity at 1900 µM ([2]; residual activity) was 79%.

For `Oc1c(Cl)cc(Cl)c2ccc(Cl)nc12` [Compound 0422-0102], the “Solubility at tested concentrations” value ([1]; tested concentration 2.0 mM) was “not soluble” and the remaining activity at 2000 µM ([2]; residual activity) was 99%.

For `CCc1cccc2c(=O)c(C(=O)O)c[nH]c12` [Compound 2595-1123], the “Solubility at tested concentrations” value ([1]; tested concentration 2.3 mM) was “not soluble” and the remaining activity at 2300 µM ([2]; residual activity) was 47%.

With `Oc1nc(-c2ccc(Cl)cc2)c2ccccc2n1` [Compound 3740-0004] the “Solubility at tested concentrations” value ([1]; tested concentration 1.9 mM) was “not soluble” and the remaining activity at 1900 µM ([2]; residual activity) was 83%.

With `Cc1ccc(-c2nc(O)nc3ccccc23)cc1` [Compound 3740-0006] the “Solubility at tested concentrations” value ([1]; tested concentration 2.1 mM) was “not soluble” and the remaining activity at 2100 µM ([2]; residual activity) was 83%.

With `O=C(N/N=C/c1ccc2cccc(O)c2n1)c1ccccc1` [Compound 4539-0001] the “Solubility at tested concentrations” value ([1]; tested concentration 1.7 mM) was “not soluble” and the remaining activity at 1700 µM ([2]; residual activity) was 49%.

For `Oc1cccc2ccc(/C=C/c3ccc4c(c3)OCO4)nc12` [Compound 4896-3346], the “Solubility at tested concentrations” value ([1]; tested concentration 1.7 mM) was “not soluble” and the remaining activity at 1700 µM ([2]; residual activity) was 139%.

With `Oc1cccc(/C=C/c2ccc3cccc(O)c3n2)c1` [Compound 5617-0440] the “Solubility at tested concentrations” value ([1]; tested concentration 1.9 mM) was “not soluble” and the remaining activity at 1900 µM ([2]; residual activity) was 55%.

In the case of `O=C(Cc1ccc(Cl)cc1)Nc1nnc[nH]1` [Compound 7881-1517], the “Solubility at tested concentrations” value ([1]; tested concentration 2.1 mM) was “not soluble” and the remaining activity at 2100 µM ([2]; residual activity) was 79%.

For `O=C(Cc1ccccc1[N+](=O)[O-])Nc1nnc[nH]1` [Compound 7882-1936], the “Solubility at tested concentrations” value ([1]; tested concentration 2.0 mM) was “not soluble” and the remaining activity at 2000 µM ([2]; residual activity) was 118%.

For `Cc1ccc(-c2csc(NC(=O)CO)n2)cc1` [Compound 8005-2972], the “Solubility at tested concentrations” value ([1]; tested concentration 2.0 mM) was “not soluble” and the remaining activity at 2000 µM ([2]; residual activity) was 88%.

With `O=C(O)c1ccc(N2Cc3ccccc3C2)cc1O` [Compound 8005-9285] the “Solubility at tested concentrations” value ([1]; tested concentration 2.0 mM) was “not soluble” and the remaining activity at 2000 µM ([2]; residual activity) was 61%.

For `O=C(N/N=C/c1ccc2cccc(O)c2n1)c1ccco1` [Compound 8006-5465], the “Solubility at tested concentrations” value ([1]; tested concentration 1.8 mM) was “not soluble” and the remaining activity at 1800 µM ([2]; residual activity) was 72%.

In the case of `O=C(N/N=C/c1ccc2cccc(O)c2n1)c1ccncc1` [Compound 8006-6830], the “Solubility at tested concentrations” value ([1]; tested concentration 1.7 mM) was “not soluble” and the remaining activity at 1700 µM ([2]; residual activity) was 71%.

With `Nc1cc(Br)cc2cccnc12` [Compound 8009-3726] the “Solubility at tested concentrations” value ([1]; tested concentration 2.2 mM) was “not soluble” and the remaining activity at 2200 µM [2] was 89%.

In the case of `Cc1c(Cl)ccc(S(N)(=O)=O)c1Cl` [Compound 8011-1291], the “Solubility at tested concentrations” value ([1]; tested concentration 2.1 mM) was “not soluble” and the remaining activity at 2100 µM [2] was 69%.

For `O=[N+]([O-])c1cc(Cl)c2cccnc2c1O` [Compound 8011-4676], the “Solubility at tested concentrations” value ([1]; tested concentration 2.2 mM) was “not soluble” and the remaining activity at 2200 µM ([2]; residual activity) was 49%.

For `Cc1cc(C)c2c(=O)[nH]n(C3CCCCCC3)c2n1` [Compound 8016-0079], the “Solubility at tested concentrations” value ([1]; tested concentration 2.3 mM) was “not soluble” and the remaining activity at 2300 µM [2] was 81%.

For `O=[N+]([O-])c1cc(Cl)c(O)c2ncccc12` [Compound 8017-0599], the “Solubility at tested concentrations” value ([1]; tested concentration 2.2 mM) was “not soluble” and the remaining activity at 2200 µM ([2]; residual activity) was 55%.

With `COc1cccc2c1ncc1c(=O)n3cccc(O)c3nc12` [Compound 8018-0164] the “Solubility at tested concentrations” value ([1]; tested concentration 1.7 mM) was “not soluble” and the remaining activity at 1700 µM [2] was 72%.

For `COc1ccc(-c2ncc(C(=O)O)c(=O)[nH]2)cc1OC` [Compound 8020-2710], the “Solubility at tested concentrations” value ([1]; tested concentration 1.8 mM) was “not soluble” and the remaining activity at 1800 µM ([2]; residual activity) was 91%.

In the case of `N#Cc1c2c([nH]c(=O)c1C(=O)O)CCCC2` [Compound 8020-6318], the “Solubility at tested concentrations” value ([1]; tested concentration 2.3 mM) was “not soluble” and the remaining activity at 2300 µM ([2]; residual activity) was 93%.

For `Cc1cccc(CNC(=O)c2ccc3cccc(O)c3n2)c1` [Compound C066-5543], the “Solubility at tested concentrations” value ([1]; tested concentration 1.7 mM) was “not soluble” and the remaining activity at 1700 µM ([2]; residual activity) was 94%.

With `O=C(O)c1nccnc1C(=O)Nc1cccc(Cl)c1` [Compound C612-0847] the “Solubility at tested concentrations” value ([1]; tested concentration 1.8 mM) was “not soluble” and the remaining activity at 1800 µM ([2]; residual activity) was 52%.

For `CCOc1ccc2c(c1)cc(C(=O)NC)n2C` [Compound D291-1849], the “Solubility at tested concentrations” value ([1]; tested concentration 2.6 mM) was “not soluble” and the remaining activity at 2600 µM ([2]; tested concentration 2.6 mM) was 95%.

For `CC1CCN(S(=O)(=O)c2cnc(O)[nH]c2=O)CC1` [Compound D668-0109], the “Solubility at tested concentrations” value ([1]; tested concentration 1.8 mM) was “not soluble” and the remaining activity at 1800 µM ([2]; residual activity) was 97%.
